Legend:
[1] = molecular target: T1, human cloned CHRM2 receptor (Homo sapiens, UniProt P08172); test: CHRM2 Ca++ Flux Assay (M2_CHO cells, agonist mode); format: cell-based; conditions: M2 CHO cells; for EC50: agonist mode, geometric mean if tested more than once, read-out: M2 FDSS EC50; for Emax / M2 FDSS PA %: Percent Activity (PA) measured to EC100 of Carbachol; for Emax: read-out: M2 FDSS PA %
T1 construct: expressed in transfected cells; host or cells: CHO-K1 (M2_CHO)
T1 sequence (P08172 1-466): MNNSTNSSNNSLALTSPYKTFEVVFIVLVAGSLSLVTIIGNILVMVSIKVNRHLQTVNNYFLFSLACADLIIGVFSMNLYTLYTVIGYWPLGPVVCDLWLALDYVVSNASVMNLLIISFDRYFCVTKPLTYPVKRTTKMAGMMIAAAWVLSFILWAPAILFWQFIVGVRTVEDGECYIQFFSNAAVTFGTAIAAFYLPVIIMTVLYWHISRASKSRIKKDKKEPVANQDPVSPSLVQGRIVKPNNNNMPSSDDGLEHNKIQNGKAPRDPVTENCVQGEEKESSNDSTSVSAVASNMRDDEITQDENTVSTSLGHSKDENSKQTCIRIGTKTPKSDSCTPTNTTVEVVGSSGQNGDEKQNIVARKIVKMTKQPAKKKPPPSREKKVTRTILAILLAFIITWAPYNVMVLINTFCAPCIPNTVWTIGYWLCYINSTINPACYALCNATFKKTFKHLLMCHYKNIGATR
Experimental: (§1) The above examples were characterized by measuring the intracellular mobilization of Ca^++ ions caused by signaling events mediated by the receptor. The Intra-cellular Calcium flux levels were captured by the highly sensitive Ca^++ indicator, Calcium Assay Kit (BD Biosciences; Catalog Number 640178. The fluorescent activity from all receptors were monitored by the fluorescent imager, FDSS 7000EX (Hamamatsu) over a span of 3 minutes. The change in Calcium flux was readily captured upon activation with the muscarinic orthosteric agonist, Carbachol.
(§2) CHO-K1 cells stably expressing the human cloned CHRM2 receptor (M2_CHO cells) were grown and maintained in a monolayer culture with F12/HAM (Life Technologies) supplemented with 10% Fetal Bovine Serum, 1×Pen-Strep, and 0.4 mg/mL Geneticin in a humidified atmosphere (5% CO2) at 37° C. The cultures were grown to 80-90% confluency in T150 flasks (Corning) and washed with 1×DPBS and lifted with 0.05% Trypsin (Life Technologies). The cells were then spun (1K rpm, 3 minutes) and frozen using Recovery Cell Culture Freezing Media (Gibco Technologies). Cells were stored in liquid nitrogen and thawed a day before the assay.
Prior to the day of the assay, stable M2 CHO cells were thawed and plated on Greiner 384 well TC treated plate at a density of 12K cells/well and kept overnight in a humidified atmosphere (5% CO2) at 37° C. The following day, the cells were loaded with Ca^++ dye (BD Biosciences) using Loading Buffer (HBSS +Ca/+Mg, 20 mM HEPES, 2.5 mM Probenecid) and placed back in cell incubator for a minimum of 1 hour and maximum of 2 hours. After incubation, the dye was replaced with Assay Buffer (HBSS −Ca/−Mg, 20 mM HEPES, 2.5 mM Probenecid) supplemented with 20 μM ATP (Sigma Aldrich) and kept at room temperature for 60 minutes prior before running on cell imager. The FDSS 7000EX (Hamamatsu) was used to acquire Ca^++ traces from cells in response to compound treatment and the data was used to generate dose response curves in agonist mode. All compounds were serially diluted in DMSO then prepared in Assay Buffer for Ca^−+ flux studies. The dose response curves were generated from the average of triplicate wells obtained from each data point and used a non-linear regression of four parameter dose response algorithm. The Percent Activity (PA) was measured to EC100 of Carbachol.
(§3) If an Example was tested more than once in an assay, then the values below represent the geometric mean of the results from each independent experiment.

[2] = molecular target: T2, human cloned CHRM5 receptor (Homo sapiens, UniProt P08912); test: CHRM5 Ca++ Flux Assay (M5_CHO cells, agonist mode); format: cell-based; conditions: for Emax / M5 FDSS PA %: Percent Activity (PA) measured to EC100 of Carbachol; for Emax: read-out: M5 FDSS PA %; for EC50: agonist mode, geometric mean if tested more than once, read-out: M5 FDSS EC50
T2 construct: expressed in transfected cells; host or cells: CHO (M5_CHO)
T2 sequence (P08912 1-532): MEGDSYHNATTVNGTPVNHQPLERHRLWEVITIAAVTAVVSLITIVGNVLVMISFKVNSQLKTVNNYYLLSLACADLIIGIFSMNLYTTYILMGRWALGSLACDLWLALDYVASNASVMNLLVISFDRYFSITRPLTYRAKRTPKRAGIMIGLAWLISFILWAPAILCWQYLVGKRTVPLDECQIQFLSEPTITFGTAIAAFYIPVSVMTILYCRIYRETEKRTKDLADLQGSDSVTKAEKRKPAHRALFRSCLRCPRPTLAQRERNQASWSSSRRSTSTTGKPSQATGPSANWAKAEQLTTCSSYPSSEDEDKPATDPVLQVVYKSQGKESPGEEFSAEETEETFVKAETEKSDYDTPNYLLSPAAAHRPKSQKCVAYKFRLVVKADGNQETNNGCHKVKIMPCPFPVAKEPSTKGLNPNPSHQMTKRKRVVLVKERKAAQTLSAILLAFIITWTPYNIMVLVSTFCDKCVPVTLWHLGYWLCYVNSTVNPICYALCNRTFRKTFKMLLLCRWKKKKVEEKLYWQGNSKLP
Experimental: as §1
as §2, with “CHRM3” for “CHRM2”, “(M3_CHO” for “(M2_CHO”, “IX Pen-Strep,” for “1×Pen-Strep,”, “assay. A similar procedure was used for cells stably expressing the human cloned CHRM5 receptor (M5_CHO).” for “assay.”
Prior to the day of the assay, stable M3_CHO or M5_CHO cells were thawed and plated on Greiner 384 well black TC treated plates at 12K cells/well in F12/DMEM supplemented with 10% FBS (Hyclone) and kept overnight in a humidified atmosphere (5% CO2) at 37° C. The next day, cells were loaded with Ca^++ dye (BD Biosciences) using Loading Buffer (HBSS +Ca/+Mg, 20 mM HEPES, 2.5 mM Probenecid) and placed back in cell incubator for a minimum of 1 hour. After incubation, the dye was replaced with Assay Buffer (HBSS −Ca/−Mg, 20 mM HEPES, 2.5 mM Probenecid) and kept at room temperature in the dark before running on cell imager. The FDSS 7000EX (Hamamatsu) was used to acquire Ca^+− traces from cells treated with 11 point dose response of compounds in triplicate in order to generate dose response curves in agonist mode. All compounds were serially diluted in DMSO then prepared in Assay Buffer for Ca^++ flux studies. The dose response curves were generated from the average of triplicate wells obtained from each data point and used a non-linear regression of four parameter dose response algorithm. The Percent Activity (PA) was measured to EC100 of Carbachol.
as §3

SMILES	EC50 [1] [µM]	Emax [1] [%]	Emax [2] [%]	EC50 [2] [µM]	M2 FDSS PA % [1] [%]	M5 FDSS PA % [2] [%]
CC(C)(O)[C@H]1C[C@H](Oc2ccc(F)cc2C2CCN([C@@H]3COC4(C3)CN(c3nnco3)C4)CC2)C1 (single isomer, unassigned) [Example 2V, 2-((1S,3r)-3-(2-(1-((S)-2-(1,3,4-oxadiazol-2-yl)-5-oxa-2-azaspiro[3.4]octan-7-yl)piperidin-4-yl)-4-fluorophenoxy)cyclobutyl)propan-2-ol or 2-((1R,3s)-3-(2-(1-((S)-2-(1,3,4-oxadiazol-2-yl)-5-oxa-2-azaspiro[3.4]octan-7-yl)piperidin-4-yl)-4-fluorophenoxy)cyclobutyl)propan-2-ol]	1.08	–	–	> 25	28	0
CC(C)(O)[C@H]1C[C@H](Oc2ccc(F)cc2C2CCN([C@@H]3COC4(C3)CN(c3nnco3)C4)CC2)C1 (single isomer, unassigned) [Example 2W, 2-((1S,3r)-3-(2-(1-((S)-2-(1,3,4-oxadiazol-2-yl)-5-oxa-2-azaspiro[3.4]octan-7-yl)piperidin-4-yl)-4-fluorophenoxy)cyclobutyl)propan-2-ol or 2-((1R,3s)-3-(2-(1-((S)-2-(1,3,4-oxadiazol-2-yl)-5-oxa-2-azaspiro[3.4]octan-7-yl)piperidin-4-yl)-4-fluorophenoxy)cyclobutyl)propan-2-ol]	3.08	–	–	> 25	29	0
CC1(C)C[C@@H](Oc2ccc(F)cc2C2CCN([C@@H]3COC4(C3)CN(c3nnco3)C4)CC2)CO1 (single isomer, unassigned) [Example 2O, (S)-7-(4-(2-(((R)-5,5-dimethyltetrahydrofuran-3-yl)oxy)-5-fluorophenyl)piperidin-1-yl)-2-(1,3,4-oxadiazol-2-yl)-5-oxa-2-azaspiro[3.4]octane or (S)-7-(4-(2-(((S)-5,5-dimethyltetrahydrofuran-3-yl)oxy)-5-fluorophenyl)piperidin-1-yl)-2-(1,3,4-oxadiazol-2-yl)-5-oxa-2-azaspiro[3.4]octane]	0.581	–	–	> 25	37	0
c1ccc([C@@H]2CCOC2)c(C2CCN([C@@H]3COC4(C3)CN(c3nnco3)C4)CC2)c1 (single isomer, unassigned) [Example 3B, (S)-2-(1,3,4-oxadiazol-2-yl)-7-(4-(2-((S)-tetrahydrofuran-3-yl)phenyl)piperidin-1-yl)-5-oxa-2-azaspiro[3.4]octane or (S)-2-(1,3,4-oxadiazol-2-yl)-7-(4-(2-((R)-tetrahydrofuran-3-yl)phenyl)piperidin-1-yl)-5-oxa-2-azaspiro[3.4]octane]	1.5	–	–	> 25	31	0

Further lines, results first:

EC50 [1] [µM]	Emax [1] [%]	Emax [2] [%]	EC50 [2] [µM]	M2 FDSS PA % [1] [%]	M5 FDSS PA % [2] [%]	SMILES
> 25	0	0	> 25	–	–	CC(C)(O)COc1ccc(F)cc1C1CCN([C@@H]2COC3(C2)CN(c2ncco2)C3)CC1 [Example 4K, (S)-1-(4-fluoro-2-(1-(2-(oxazol-2-yl)-5-oxa-2-azaspiro[3.4]octan-7-yl)piperidin-4-yl)phenoxy)-2-methylpropan-2-ol]
> 25	0	0	> 25	–	–	COc1ccccc1C1CCN([C@@H]2COC3(C2)CN(c2ncns2)C3)CC1 [Example 5B, (S)-7-(4-(2-methoxyphenyl)piperidin-1-yl)-2-(1,2,4-thiadiazol-5-yl)-5-oxa-2-azaspiro[3.4]octane]
> 25	20	0	> 25	–	–	c1ccc(C2CCN([C@@H]3COC4(C3)CN(c3ncco3)C4)CC2)c(O[C@H]2CCOC2)c1 [Example 4H, (S)-2-(oxazol-2-yl)-7-(4-(2-(((S)-tetrahydrofuran-3-yl)oxy)phenyl)piperidin-1-yl)-5-oxa-2-azaspiro[3.4]octane]
4.75	46	0	> 25	–	–	Fc1ccc(OC2CCOCC2)c(C2CCN([C@@H]3COC4(C3)CN(c3nncs3)C4)CC2)c1 [Example 5J, (S)-7-(4-(5-fluoro-2-((tetrahydro-2H-pyran-4-yl)oxy)phenyl)piperidin-1-yl)-2-(1,3,4-thiadiazol-2-yl)-5-oxa-2-azaspiro[3.4]octane]
20	35	0	> 25	–	–	COc1cc(F)ccc1C1CCN([C@@H]2COC3(C2)CN(c2nncs2)C3)CC1 [Example 5T, (S)-7-(4-(4-fluoro-2-methoxyphenyl)piperidin-1-yl)-2-(1,3,4-thiadiazol-2-yl)-5-oxa-2-azaspiro[3.4]octane]
0.073	51	35	2.53	–	–	Cc1nc(COc2ccccc2C2CCN([C@@H]3COC4(C3)CN(c3nncs3)C4)CC2)no1 [Example 5F, (S)-7-(4-(2-((5-methyl-1,2,4-oxadiazol-3-yl)methoxy)phenyl)piperidin-1-yl)-2-(1,3,4-thiadiazol-2-yl)-5-oxa-2-azaspiro[3.4]octane]
13.1	58	0	> 25	–	–	Fc1ccc(OC2CC3(COC3)C2)c(C2CCN([C@@H]3COC4(C3)CN(c3ncco3)C4)CC2)c1 [Example 4G, (S)-7-(4-(2-((2-oxaspiro[3.3]heptan-6-yl)oxy)-5-fluorophenyl)piperidin-1-yl)-2-(oxazol-2-yl)-5-oxa-2-azaspiro[3.4]octane]
